This passage reports MIC results from patent publication US7435805B2, “O-alkyl macrolide and azalide derivatives and regioselective process for their preparation” (GlaxpSmithkline Istrazivacki, priority 2003, dated 2008).

Test [1] deals with S. pyogenes B0545 M. The test can be described thus: microtiter broth serial dilution MIC, S. pyogenes B0545 M. The class given is cell-based, Streptococcus pyogenes. The settings on record: S. pyogenes B0545 M (efflux resistant strain); unit assumed. The text has this:
(§1) In particular, the compounds of the invention may be active against strains of Staphylococcus aureus, Streptococcus pneumoniae, Moraxella catarrhalis, Streptococcus pyogenes, or Haemophilus influenzae. […] (Table 1.)

The subject of test [2] is M. catarrhalis B0324. The test can be described thus: microtiter broth serial dilution MIC, M. catarrhalis B0324. The test is classed as cell-based, Moraxella catarrhalis. The settings on record: unit assumed.
Description: as §1

The test system of test [3] is S. pneumoniae B0326 M. The test can be described thus: microtiter broth serial dilution MIC, S. pneumoniae B0326 M. The class given is cell-based, Streptococcus pneumoniae. The settings on record: unit assumed.
Description: as §1

Test [4] concerns E. coli B0001. The test can be described thus: microtiter broth serial dilution MIC, E. coli B0001. The test is classed as cell-based. The note with it: unit assumed.
Description: as §1

Test [5] concerns H. influenzae B0529. The test is described as follows: microtiter broth serial dilution MIC, H. influenzae B0529. The test is classed as cell-based, Haemophilus influenzae. The note with it: unit assumed.
Description: as §1

For test [6], the system named is S. pyogenes B0542. The test can be described thus: microtiter broth serial dilution MIC, S. pyogenes B0542. The class given is cell-based, Streptococcus pyogenes. The note with it: unit assumed.
Description: as §1

Test [7] deals with S. aureus B0329. The test can be described thus: microtiter broth serial dilution MIC, S. aureus B0329. The class given is cell-based, Staphylococcus aureus. The note with it: unit assumed.
Description: as §1

The test system of test [8] is S. pyogenes B0543 iMLS. The test is described as follows: microtiter broth serial dilution MIC, S. pyogenes B0543 iMLS. The class given is cell-based, Streptococcus pyogenes. The settings on record: S. pyogenes B0543 iMLS (inducible resistant strain); unit assumed.
Description: as §1

The test system of test [9] is S. pneumoniae B0541. The test is described as follows: microtiter broth serial dilution MIC, S. pneumoniae B0541. The test is classed as cell-based, Streptococcus pneumoniae. The settings on record: unit assumed.
Description: as §1

Converted amounts (≈) assume the structure as drawn.

8a-Aza-8a-homoerythromycin: the MIC in test [1] was determined as 32 µg/mL; in [2] it was 2 µg/mL; in [3], 64 µg/mL; in test [4], 16 µg/mL; in test [5], 1 µg/mL; in [6] it was 0.25 µg/mL. Besides, the MIC in test [7] was 2 µg/mL; in [8], 8 µg/mL; in test [9], 0.125 µg/mL.

As for `CC[C@H]1OC(=O)[C@H](C)[C@@H](O[C@H]2C[C@@](C)(OC)[C@@H](O)[C@H](C)O2)[C@H](C)[C@@H](O[C@@H]2O[C@H](C)C[C@H](N(C)C)[C@H]2O)[C@](C)(O)C[C@@H](C)CN[C@H](C)[C@@H](O)[C@]1(C)O` [9-Deoxo-9a-aza-9a-homoerythromycin], the MIC in test [1] was found to be 16 µg/mL (≈ 21.8 µM); in [2], 1 µg/mL (≈ 1.36 µM); in test [3] it was 16 µg/mL (≈ 21.8 µM); in [4], 4 µg/mL (≈ 5.44 µM); in test [5] it was 0.5 µg/mL (≈ 0.68 µM); in test [6], 0.125 µg/mL (≈ 0.17 µM). Further, the values for the MIC in test [7], in test [8] and in [9] were 4 µg/mL (≈ 5.44 µM), 32 µg/mL (≈ 43.5 µM) and 0.25 µg/mL (≈ 0.34 µM), respectively.

As to `CC[C@H]1OC(=O)[C@H](C)[C@@H](O[C@H]2C[C@@](C)(OC)[C@@H](O)[C@H](C)O2)[C@H](C)[C@@H](O[C@@H]2O[C@H](C)C[C@H](N(C)C)[C@H]2O)[C@](C)(O)C[C@@H](C)CN[C@H](C)[C@@H](OC)[C@]1(C)O` [Ex. 3, 11-O-METHYL-9-DEOZO-9A-AZA-9A-HOMOERYTHROMYCIN], the MIC stood at 4 µg/mL (≈ 5.34 µM) in [1]; 0.125 µg/mL (≈ 0.167 µM) in test [2]; 8 µg/mL (≈ 10.7 µM) in test [3]; 2 µg/mL (≈ 2.67 µM) in test [4]; 0.5 µg/mL (≈ 0.668 µM) in test [5]; 0.125 µg/mL (≈ 0.167 µM) in test [6]. The MIC in test [7] stood at 1 µg/mL (≈ 1.34 µM); in [8] it was 16 µg/mL (≈ 21.4 µM); in test [9], 0.125 µg/mL (≈ 0.167 µM).

In the case of `CC[C@H]1OC(=O)[C@H](C)[C@@H](O[C@H]2C[C@@](C)(OC)[C@@H](O)[C@H](C)O2)[C@H](C)[C@@H](O[C@@H]2O[C@H](C)C[C@H](N(C)C)[C@H]2O)[C@](C)(O)C[C@@H](C)NC(=O)[C@H](C)[C@@H](OC)[C@]1(C)O` [Ex. 5, 11-O-METHYL-8A-AZA-8A-HOMOERYTHROMYCIN], the MIC in test [1] worked out at 16 µg/mL (≈ 21 µM); in [2], 0.125 µg/mL (≈ 0.164 µM); in test [3], 32 µg/mL (≈ 41.9 µM); in test [4], 16 µg/mL (≈ 21 µM); in test [5] it was 1 µg/mL (≈ 1.31 µM); in [6], 0.125 µg/mL (≈ 0.164 µM). In addition, the MIC in [7] amounted to 0.5 µg/mL (≈ 0.655 µM); in [8], 4 µg/mL (≈ 5.24 µM); in test [9] it was 0.125 µg/mL (≈ 0.164 µM).
